What all share (assay): NCI-60 cell line screen, 48 h
For assay [1], the system named is A549 NSCLC.
The subject of assay [2] is IGROV1 ovarian.
Assay [3] concerns LOX IMVI melanoma.
Assay [4] deals with OVCAR-3 ovarian.
The test system of assay [5] is RPMI-8226 leukemia.
In assay [6] the test system is RXF 393 renal.
Assay [7] has as its system UACC-62 melanoma.
Assay [8] has as its system DU-145 prostate.
The test system of assay [9] is MDA-MB-231 breast.
Assay [10] relates to PC-3 prostate.

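96-well plates; 48 h exposure; 5 concentrations. Endpoints by linear interpolation between flanking doses. Not reached: highest tested concentration assigned. GI50 is the concentration that inhibits growth by half. At the TGI there is no net growth.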 Bounds are passed on as bounds.

In the case of `Cc1ccc([N+](=O)[O-])cc1NC(=O)C(=O)Cc1occc(=O)c1O`, the TGI in [1], in assay [2], in assay [3], in assay [4], in [5] and in [6] was greater than 100 µM each time. Also, the TGI in assay [7] was greater than 100 µM.

As to `O=C(/C=C\c1cccc2ccccc12)c1cccs1`, the TGI in [1] was determined as 34.5 µM; in assay [2], 23.3 µM; in [4], 23.7 µM; in assay [5] it was 7.68 µM; in assay [7], 21.5 µM.

On to `NC(=O)N/N=C(\C(=O)C(=O)Nc1ccc(Cl)c(C(F)(F)F)c1)c1nc2ccc(C(=O)c3ccccc3)cc2[nH]c1=O`, for which the TGI in assay [1], in [2], in assay [5], in assay [6] and in assay [7] was greater than 100 µM throughout.

`COc1cc(/C=C2\[C@H]3c4c(c(OC)c(C)c(OC)c4OC)C[C@@H](C(=O)N2Cc2ccccc2)N3C(=O)OC(C)C)c(OC)c(C)c1OC`: the TGI in assay [1], in assay [2], in [3], in assay [4], in [5] and in [6] was greater than 100 µM in each case. Also, the TGI in assay [7] was greater than 100 µM.

In the case of `O=C(NCc1ccccc1)c1cc2cc(O)c(O)cc2cn1`, the TGI in assay [1] was greater than 100 µM; in [2], 73.2 µM; in assay [3] it was 66.4 µM; in assay [4] it was greater than 100 µM; in assay [5], greater than 100 µM; in assay [6] it was 62.3 µM. This molecule showed a TGI in assay [7] of 44.8 µM.

As to `CCOc1ccccc1N=Nc1c(-c2ccccc2)nn(C(=O)CC(=O)Nc2cccc(Cl)c2)c1-c1ccccc1`, the TGI in assay [1], in assay [2], in assay [3], in assay [4], in [5] and in assay [6] was greater than 100 µM in each case. This molecule also gave a TGI in [7] greater than 100 µM.

For the molecule `COc1cc2nc(Sc3c([N+](=O)[O-])ncn3C)[nH]c2cc1OC`, the TGI in [1] is greater than 100 µM; in [2] it was greater than 100 µM; in assay [3], greater than 100 µM; in assay [4], greater than 100 µM; in [5], greater than 100 µM; in [6], 43.9 µM. Further, the TGI in assay [7] amounted to 75.8 µM.

As to `COc1ccc(C(c2ccc(C(C)C)cc(=O)c2O)c2ccc3cccnc3c2O)cc1` (stereo unspecified), the TGI in assay [1] was 12.3 µM; in assay [2], 15.3 µM; in assay [3], greater than 100 µM; in assay [4], 4.95 µM; in assay [5], 23.6 µM; in assay [7] it was 4.63 µM.

Turning to `CCOC(=O)C(Cc1ccccc1)NC(=O)c1ccc(N=NN(C)C)cc1` (stereo unspecified), the TGI in [1], in assay [2], in assay [3], in assay [4], in assay [5] and in assay [7] was greater than 100 µM throughout.

For `N/C(=N\N=C\c1cccs1)NO`, the TGI in assay [1] was greater than 100 µM; in [2], greater than 100 µM; in [4], greater than 100 µM; in assay [6] it was greater than 100 µM; in assay [7], 51 µM.

Turning to `COC(=O)N/N=C(/CCN1CCCC1)CC(c1ccccc1)c1c(O)c2ccccc2oc1=O` (stereo unspecified), the TGI in assay [1], in assay [2], in assay [3], in [4], in assay [5] and in assay [6] was greater than 100 µM throughout. The molecule further registered a TGI in assay [7] greater than 100 µM.

As to `CCC(C)OC(=O)C1C2CCC(O2)C1C(=O)O` (stereo unspecified), the TGI in [1] is greater than 100 µM; in assay [2] it was greater than 100 µM; in assay [3], greater than 58.3 µM; in assay [4], greater than 100 µM; in [5], greater than 68.7 µM; in [6], greater than 56.2 µM. In assay [7], this molecule returned a TGI greater than 100 µM.

For the molecule `CC(=O)NC(CCCCNC(=O)N(CCCl)N=O)C(=O)NCc1ccccc1` (stereo unspecified), the TGI in [1], in assay [2], in assay [4], in [5] and in [7] was greater than 100 µM in each case.

With `O=C(O)C(Cc1c[nH]c2ccccc12)N=Cc1nc(-c2ccccc2)oc1O` (stereo unspecified), the TGI in assay [1], in assay [2], in [3], in [4], in assay [5] and in assay [6] was greater than 100 µM each time. Moreover, the TGI in assay [7] is greater than 100 µM.

As to `CN(C)C(=O)/N=c1\ss/c(=N\C(=S)N(C)C)n1-c1ccccc1`, the values for the GI50 in assay [1], in [5] and in assay [7] were 0.0483 µM, 0.291 µM and 1.92 µM, respectively. The TGI in [1] is greater than 100 µM; in [2], greater than 100 µM; in assay [3], greater than 46 µM; in assay [4], greater than 65.6 µM; in assay [5] it was greater than 100 µM; in [6], greater than 79.9 µM. Besides, in assay [7], the TGI was greater than 100 µM.

On to `COc1ccc(C(=O)N2CCc3c([nH]c4ccccc34)C2C(=O)O)o1` (stereo unspecified), for which the TGI in assay [1], in assay [8], in [2], in assay [9], in assay [4] and in assay [10] was greater than 10 µM in each case. For the same molecule, the TGI in assay [5] and in [7] was greater than 10 µM each time.

Take `COC(=O)C(=O)C(C(=O)C(=O)Nc1ccc(Cl)cc1C)c1nc2ccc(C(=O)c3ccccc3)cc2[nH]c1=O` (stereo unspecified): the TGI in assay [1], in assay [2], in assay [3], in [4], in assay [5] and in assay [6] was greater than 100 µM in each case. In assay [7], this molecule registered a TGI greater than 100 µM.

Take `CC(=O)Nc1ccc(C(=O)NN2C(=O)C(Cl)C2c2cc(Br)ccc2O)cc1` (stereo unspecified): the TGI in [1], in assay [8], in assay [2], in assay [9], in [4] and in [10] was greater than 100 µM throughout. Further, the TGI in assay [5] and in assay [7] was greater than 100 µM throughout.
